Laboratory results as given in US10669271B2, “Heterocyclic compounds as immunomodulators” (Incyte Corporation, priority 2018, dated 2020).

How the values were obtained:
[1] = test system: PD-L1 aAPC/CHO-K1 cells and Jurkat-PD-1-NFAT effector cells; assay: Nuclear factor of activated T-cells (NFAT) assay; assay type: cell-based; conditions: Cricetulus griseus; PD-L1 aAPC/CHO-K1 cells with Jurkat-PD-1-NFAT effector cells, 24 hours
Method: Example C. Nuclear Factor of Activated T-Cells (NFAT) Assay
PD-L1 aAPC/CHO-Klcells (Promega) were maintained in F-12 medium with addition of 10% FBS, 200 μg/ml Hygromycin B, 250 μg/ml Geneticin (G418). Jurkat-PD-1-NFAT effector cells (Promega) were cultured in RPMI 1640 medium supplemented with 10% FBS, 100 μg/ml Hygromycin B, 500 μg/ml G418. The culture media of PD-L1 aAPC/CHO-K1 cells were first replaced with assay medium (RPMI1640 medium with 1% FBS). The PD-L1 aAPC/CHO-K1 cells were then added in a white 384-well white clear bottom assay plate (CELLCOAT® Tissue Culture Plates, Greiner Bio-One) at 8000 per well in 10 μL assay medium. Test compounds were prepared by serial dilution in DMSO and 0.8 μL test compounds in DMSO were first transferred to the 384 REMP plate well (Thermofisher) by PlateMate Plus (Thermofisher) followed with addition of 50 μL plating medium. 5 μL compounds in the assay medium were transferred to the cells with 0.4% DMSO in the final assay at 2 μM. After removing the culture media, 10,000 Jurkat-PD-1-NFAT effector cells in 5 μL assay medium was dispensed into each well. The assay plate was incubated at 37° C., 5% CO2 for 24 hours. After the assay plate was equilibrated to room temp for 15 minutes, 20 µL/well of Bio-Glo™ reagent (Promega) were added. After 8 minutes incubation at room temperature, luminescence was read at with Pherastar microplate reader (BMG Labtech). The fold of induction (FOI) was calculated based on the ratio of luminescence normalized to the DMSO wells within each assay plate. The maximum percentage of induction was reported based on the ratio between the highest FOI of each compound and the maximum FOI of control compound within each assay plate. Wells with DMSO were served as the negative controls and wells containing control compound with the highest FOI were used as positive controls. EC50 determination was performed by fitting the curve of percent control activity versus the log of the compound concentration using the GraphPad Prism 6.0 software.

PD-L1 = PD-L1 (Homo sapiens (Human), UniProt Q9NZQ7); assay: PD-L1 whole blood internalization assay; assay type: cell-based; conditions: 1 ng/ml human interferon γ, PD-L1 expression on CD14+ cells, read-out: Whole Blood (24 HR) IC50
Method: Example D. PD-L1 Whole Blood Internalization Assay
To determine PD-L1 internalization in human whole blood, normal human blood (Biological Specialty Corp, Colmar. Pa.) was incubated in the presence or absence of a concentration range of test compounds and 1 ng/ml human interferon γ (R&D Systems Inc. Minn. […] Blood was then stained with PD-L1 (MIH1, eBioscience; or BD Biosciences San Jose, Calif.), CD14 (Life Technologies, Carlsbad, Calif.) for 30 minutes in the dark at room temperature. Whole Blood/red cells were lysed/fixed (lysis buffer BD Biosciences) for 5 minutes at 37° C. in the dark and then centrifuged at 1600 RPM for 5 minutes. Cells were resuspended in Stain Buffer (BD Bioscience, San Jose, Calif.) and transferred into 96 well round bottom plates (Corning). Cells were gated on CD14+(BD Biosciences) and PD-L1 expression determined by mean fluorescence intensity (MFI) (BD LSRFortessa™ X-20). IC50 determination was performed by fitting the curve of compound percent inhibition versus the log of the compound concentration using the GraphPad Prism 7.0 software.

PD-1/PD-L1 = PD-1/PD-L1 (Homo sapiens (Human), UniProt Q9NZQ7); assay: Homogeneous Time-Resolved Fluorescence (HTRF) PD-1/PD-L1 binding assay; conditions: recombinant human PD-1 and PD-L1, 25° C., pH 7.4
Method: Example A. Homogeneous Time-Resolved Fluorescence (HTRF) PD-1/PD-L1 Binding Assay
The assays were conducted in a standard black 384-well polystyrene plate with a final volume of 20 μL. Inhibitors were first serially diluted in DMSO and then added to the plate wells before the addition of other reaction components. The final concentration of DMSO in the assay was 1%. The assays were carried out at 25° C. in the PBS buffer (pH 7.4) with 0.05% Tween-20 and 0.1% BSA. Recombinant human PD-L1 protein (19-238) with a His-tag at the C-terminus was purchased from AcroBiosystems (PD1-H5229). Recombinant human PD-1 protein (25-167) with Fc tag at the C-terminus was also purchased from AcroBiosystems (PD1-H5257). PD-L1 and PD-1 proteins were diluted in the assay buffer and 10 μL was added to the plate well. Plates were centrifuged and proteins were preincubated with inhibitors for 40 minutes. The incubation was followed by the addition of 10 μL of HTRF detection buffer supplemented with Europium cryptate-labeled anti-human IgG (PerkinElmer-AD0212) specific for Fc and anti-His antibody conjugated to SureLight®-Allophycocyanin (APC, PerkinElmer-AD0059H). After centrifugation, the plate was incubated at 25° C. for 60 min. before reading on a PHERAstar FS plate reader (665 nm/620 nm ratio). Final concentrations in the assay were—3 nM PD1,10 nM PD-L1, 1 nM europium anti-human IgG and 20 nM anti-His-Allophycocyanin. IC50 determination was performed by fitting the curve of percent control activity versus the log of the inhibitor concentration using the GraphPad Prism 5.0 software.

[2] = test system: U2OS/PD-L1 cells and Jurkat-PD-1-SHP cells; assay: Src homology region 2 domain-containing phosphatase (SHP) assay; assay type: cell-based; conditions: Homo sapiens; U2OS/PD-L1 cells with Jurkat-PD-1-SHP cells, 2 hours
Method: Example B. Src Homology Region 2 Domain-Containing Phosphatase (SHP) Assay
U2OS/PD-L1 cells (DiscoveRx Corporation) were maintained in McCoy's 5A medium with addition of 10% FBS, 0.25 μg/ml Puromycin. After removing the culture media, the cell medium was replaced with assay medium (RPMI1640 medium with 1% FBS). The U2OS/PD-L1 cells were then added in 384-well black clear bottom assay plate (CELLCOAT® Tissue Culture Plates, Greiner Bio-One) at 5000 cells per well in 20 μL assay medium. Test compounds were prepared by serial dilution in DMSO and 125 nL compound were first transferred to the 384 REMP plate well (Thermofisher) by ECHO liquid handler (Labcyte) followed with addition of 27.5 μL assay medium. 5 μL/well compounds in the assay medium were transferred to the cell plate with 0.05% DMSO in the final assay at 0.5 μM. Jurkat-PD-1-SHP cells (DiscoveRx Corporation) were cultured in RPMI1640 medium supplemented with 10% FBS, 250 μg/ml Hygromycin B, 500 μg/ml G418. After the replacement of culture media with assay medium, 5,000 Jurkat-PD-1-SHP cells in 20 μL were dispensed into each well. The assay plate was incubated at 37° C., 5% CO2 for 2 hours before 2.5 μL PathHunter reagent 1 (DiscoveRx Corporation) were added to each well. The assay plate was shaken for 1 min at 350 rpm in the dark followed with addition of 10 μL PathHunter reagent 2 (DiscoveRx Corporation). Chemiluminescent signal was recorded with TopCount reader (Perkin Elmer) after incubation at room temperature for 1 hour. Wells with DMSO were served as the positive controls and wells containing no cells were used as negative controls. IC50 determination was performed by fitting the curve of percentage of control activity versus the log of the compound concentration using the GraphPad Prism 6.0 software.

Sequence of PD-L1 (Q9NZQ7 19-290): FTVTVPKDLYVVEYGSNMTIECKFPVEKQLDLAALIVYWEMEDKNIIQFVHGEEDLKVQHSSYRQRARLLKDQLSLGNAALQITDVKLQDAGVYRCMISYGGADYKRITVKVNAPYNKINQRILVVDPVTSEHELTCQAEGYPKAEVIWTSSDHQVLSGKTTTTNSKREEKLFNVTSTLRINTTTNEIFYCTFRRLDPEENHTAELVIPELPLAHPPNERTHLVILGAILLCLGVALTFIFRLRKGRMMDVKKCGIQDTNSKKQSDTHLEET
Sequence of PD-1/PD-L1 (Q9NZQ7 19-238): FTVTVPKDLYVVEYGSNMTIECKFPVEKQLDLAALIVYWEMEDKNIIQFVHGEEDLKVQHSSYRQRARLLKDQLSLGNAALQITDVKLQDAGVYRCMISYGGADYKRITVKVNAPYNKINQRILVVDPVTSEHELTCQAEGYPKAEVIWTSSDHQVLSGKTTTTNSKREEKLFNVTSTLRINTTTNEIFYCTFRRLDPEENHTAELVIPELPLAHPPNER

IC50 (PD-L1) | IC50 (PD-1/PD-L1) | IC50 [2] | Compound | EC50 [1]
100 to 500 nM | ≤ 10 nM | – | Cc1c(Nc2nc(C(F)F)cc3cc(CN4CC[C@@H](O)C4)cnc23)cccc1-c1cccc(-c2nc3cc(CN4CC[C@@](C)(C(=O)O)C4)cc(C#N)c3o2)c1C [Example 34, (R)-1-((7-cyano-2-(3′-(6-(difluoromethyl)-3-(((R)-3-hydroxypyrrolidin-1-yl)methyl)-1,7-naphthyridin-8-ylamino)-2,2′-dimethylbiphenyl-3-yl)benzo[d]oxazol-5-yl)methyl)-3-methylpyrrolidine-3-carboxylic Acid] | ≤ 10 nM
10 to 100 nM | ≤ 10 nM | – | Cc1c(Nc2nc(C(F)F)nc3cc(CN4CC[C@@H](O)C4)cnc23)cccc1-c1cccc(-c2nc3cc(CN4CCC(C)(C(=O)O)CC4)cc(C#N)c3o2)c1C [Example 24, (R)-1-((7-cyano-2-(3′-(2-(difluoromethyl)-7-((3-hydroxypyrrolidin-1-yl)methyl)pyrido[3,2-d]pyrimidin-4-ylamino)-2,2′-dimethylbiphenyl-3-yl)benzo[d]oxazol-5-yl)methyl)-4-methylpiperidine-4-carboxylic Acid] | 10 to 100 nM
10 to 100 nM | – | ≤ 10 nM | Cc1c(Nc2nc(C(F)(F)F)nc3cc(CN4CC[C@@H](O)C4)cnc23)cccc1-c1cccc(-c2nc3cc(CN4CCC(C(=O)O)CC4)cc(C#N)c3o2)c1C [Example 19, (R)-1-((7-cyano-2-(3′-(7-((3-hydroxypyrrolidin-1-yl)methyl)-2-(trifluoromethyl)pyrido[3,2-d]pyrimidin-4-ylamino)-2,2′-dimethylbiphenyl-3-yl)benzo[d]oxazol-5-yl)methyl)piperidine-4-carboxylic Acid] | 10 to 100 nM
10 to 100 nM | ≤ 10 nM | – | CNC(=O)C1CCN(Cc2cc(C#N)c3oc(-c4cccc(-c5cccc(Nc6nc(C(F)F)nc7cc(CN8CC[C@@H](O)C8)cnc67)c5C)c4C)nc3c2)CC1 [Example 26, (R)-1-((7-cyano-2-(3′-(2-(difluoromethyl)-7-((3-hydroxypyrrolidin-1-yl)methyl)pyrido[3,2-d]pyrimidin-4-ylamino)-2,2′-dimethylbiphenyl-3-yl)benzo[d]oxazol-5-yl)methyl)-N-methylpiperidine-4-carboxamide] | ≤ 10 nM
10 to 100 nM | ≤ 10 nM | – | Cc1c(Nc2nc(CO)nc3cc(CN4CC[C@@H](O)C4)cnc23)cccc1-c1cccc(-c2nc3cc(CN4CCC(C(=O)O)CC4)cc(C#N)c3o2)c1C [Example 32, (R)-1-((7-cyano-2-(3′-(2-(hydroxymethyl)-7-((3-hydroxypyrrolidin-1-yl)methyl)pyrido[3,2-d]pyrimidin-4-ylamino)-2,2′-dimethylbiphenyl-3-yl)benzo[d]oxazol-5-yl)methyl)piperidine-4-carboxylic Acid] | 10 to 100 nM

The remaining lines, values behind:

Compound | IC50 (PD-L1) | IC50 (PD-1/PD-L1) | IC50 [2] | EC50 [1]
Cc1c(Nc2nc(C(F)F)nc3cc(CN4CC[C@@H](O)C4)cnc23)cccc1-c1cccc(-c2nc3cc(CN4CCC(C(=O)N(C)C)CC4)cc(C#N)c3o2)c1C [Example 25, (R)-1-((7-cyano-2-(3′-(2-(difluoromethyl)-7-((3-hydroxypyrrolidin-1-yl)methyl)pyrido[3,2-d]pyrimidin-4-ylamino)-2,2′-dimethylbiphenyl-3-yl)benzo[d]oxazol-5-yl)methyl)-N,N-dimethylpiperidine-4-carboxamide] | 10 to 100 nM | ≤ 10 nM | – | 10 to 100 nM
Cc1c(Nc2nc(C(F)F)nc3cc(CN4CC[C@@H](O)C4)cnc23)cccc1-c1cccc(-c2nc3cc(CN4CCC(C(=O)NCCC(=O)O)CC4)cc(C#N)c3o2)c1C [Example 27, (R)-3-(1-((7-cyano-2-(3′-(2-(difluoromethyl)-7-((3-hydroxypyrrolidin-1-yl)methyl)pyrido[3,2-d]pyrimidin-4-ylamino)-2,2′-dimethylbiphenyl-3-yl)benzo[d]oxazol-5-yl)methyl)piperidine-4-carboxamido)propanoic Acid] | 10 to 100 nM | ≤ 10 nM | – | 10 to 100 nM
Cc1c(Nc2nc(C(F)F)nc3cc(CN4CC[C@@H](O)C4)cnc23)cccc1-c1cccc(-c2nc3cc(CN4CC[C@H](C(=O)O)C4)cc(C#N)c3o2)c1C [Example 22, (S)-1-((7-cyano-2-(3′-(2-(difluoromethyl)-7-(((R)-3-hydroxypyrrolidin-1-yl)methyl)pyrido[3,2-d]pyrimidin-4-ylamino)-2,2′-dimethylbiphenyl-3-yl)benzo[d]oxazol-5-yl)methyl)pyrrolidine-3-carboxylic Acid] | 10 to 100 nM | ≤ 10 nM | – | 10 to 100 nM
Cc1c(Nc2nc(C(F)F)nc3cc(CN4CC[C@@H](O)C4)cnc23)cccc1-c1cccc(-c2nc3cc(CN4CC[C@](C)(C(=O)O)C4)cc(C#N)c3o2)c1C [Example 23, (S)-1-((7-cyano-2-(3′-(2-(difluoromethyl)-7-(((R)-3-hydroxypyrrolidin-1-yl)methyl)pyrido[3,2-d]pyrimidin-4-ylamino)-2,2′-dimethylbiphenyl-3-yl)benzo[d]oxazol-5-yl)methyl)-3-methylpyrrolidine-3-carboxylic Acid] | 10 to 100 nM | ≤ 10 nM | – | ≤ 10 nM
